Values after ≈ are worked out from the molar mass of the structure shown.
Assays:
Type in all cases: functional
[1] = tested on: Streptococcus pyogenes; test: Antibacterial activity against Streptococcus pyogenes DSM 11728 incubated for 24 hrs by disk diffusion method
[2] = tested on: Pseudomonas aeruginosa; test: Antibacterial activity against Pseudomonas aeruginosa DSM 22644 incubated for 24 hrs by disk diffusion method
[3] = tested on: Staphylococcus aureus; test: Antibacterial activity against Staphylococcus aureus DSM 799 incubated for 24 hrs by disk diffusion method
[4] = tested on: Bacillus subtilis; test: Antibacterial activity against Bacillus subtilis DSM 1088 incubated for 24 hrs by disk diffusion method
[5] = tested on: Escherichia coli; test: Antibacterial activity against Escherichia coli DSM 682 incubated for 24 hrs by disk diffusion method

Compound: CC(C)[C@@H](C)/C=C/[C@@H](C)[C@H]1CCC2C3=CC(=O)O[C@@]3(O)CC[C@@]21C (stereo not given in full) [DEMETHYLINCISTEROL A3]
- MIC ([1]; DSM 11728, 24 h): > 10 µg/mL
- MIC ([2]; DSM 22644, 24 h): > 10 µg/mL
- MIC ([3]; DSM 799, 24 h): > 10 µg/mL
- MIC ([4]; DSM 1088, 24 h): > 10 µg/mL
- MIC ([5]; DSM 682, 24 h): > 10 µg/mL

Compound: CN[C@@H]1[C@H](O[C@H]2[C@H](O[C@H]3[C@H](O)[C@@H](O)[C@H](N=C(N)N)[C@@H](O)[C@@H]3N=C(N)N)O[C@@H](C)[C@]2(O)C=O)O[C@@H](CO)[C@H](O)[C@H]1O [STREPTOMYCIN]
- MIC ([1]; DSM 11728, 24 h): > 10 µg/mL
- MIC ([2]; DSM 22644, 24 h): 10 µg/mL (≈ 17.2 µM)
- MIC ([3]; DSM 799, 24 h): 5 µg/mL (≈ 8.6 µM)
- MIC ([4]; DSM 1088, 24 h): 5 µg/mL (≈ 8.6 µM)
- MIC ([5]; DSM 682, 24 h): 1 µg/mL (≈ 1.72 µM)

Compound: CO[C@]12CC[C@]3(C)[C@@H]([C@H](C)/C=C/[C@H](C)C(C)C)CC[C@H]3C1=CC(=O)O2
- MIC ([1]; DSM 11728, 24 h): > 10 µg/mL
- MIC ([2]; DSM 22644, 24 h): > 10 µg/mL
- MIC ([3]; DSM 799, 24 h): > 10 µg/mL
- MIC ([4]; DSM 1088, 24 h): > 10 µg/mL
- MIC ([5]; DSM 682, 24 h): > 10 µg/mL

Compound: CC(C)[C@@H](C)/C=C/[C@@H](C)[C@H]1CC[C@@]2(O)C3=CC(=O)[C@@]4(O)C[C@@H](O)CC[C@]4(C)[C@@]3(O)CC[C@]12C
- MIC ([1]; DSM 11728, 24 h): > 10 µg/mL
- MIC ([2]; DSM 22644, 24 h): > 10 µg/mL
- MIC ([3]; DSM 799, 24 h): > 10 µg/mL
- MIC ([4]; DSM 1088, 24 h): > 10 µg/mL
- MIC ([5]; DSM 682, 24 h): > 10 µg/mL

Compound: CC(C)[C@@H](C)/C=C/[C@@H](C)[C@H]1CC[C@H]2/C(=C/C(=O)O[C@]3(C)CCC=CC3=O)C(=O)CC[C@]12C
- MIC ([1]; DSM 11728, 24 h): > 10 µg/mL
- MIC ([2]; DSM 22644, 24 h): > 10 µg/mL
- MIC ([3]; DSM 799, 24 h): 1 µg/mL (≈ 2.27 µM)
- MIC ([4]; DSM 1088, 24 h): 5 µg/mL (≈ 11.3 µM)
- MIC ([5]; DSM 682, 24 h): > 10 µg/mL

Compound: CC(C)=CC[C@H](O)[C@@H](C)[C@H]1CC[C@@]2(C)c3ccc4c(c3C[C@@H](O)[C@]12C)[C@@H](O)C[C@H](O)C4(C)C
- MIC ([1]; DSM 11728, 24 h): 0.1 µg/mL (≈ 0.219 µM)
- MIC ([2]; DSM 22644, 24 h): 2 µg/mL (≈ 4.38 µM)
- MIC ([3]; DSM 799, 24 h): 5 µg/mL (≈ 10.9 µM)
- MIC ([4]; DSM 1088, 24 h): 2 µg/mL (≈ 4.38 µM)
- MIC ([5]; DSM 682, 24 h): 5 µg/mL (≈ 10.9 µM)

Compound: CC(C)[C@@H](C)/C=C/[C@@H](C)[C@H]1CC[C@H]2C3=C[C@H](O)[C@@]4(O)C[C@@H](O)CC[C@]4(C)C3=CC[C@]12C
- MIC ([1]; DSM 11728, 24 h): > 10 µg/mL
- MIC ([2]; DSM 22644, 24 h): > 10 µg/mL
- MIC ([3]; DSM 799, 24 h): > 10 µg/mL
- MIC ([4]; DSM 1088, 24 h): > 10 µg/mL
- MIC ([5]; DSM 682, 24 h): > 10 µg/mL

Compound: GENTAMICIN
- MIC [1]: 10 µg/mL
- MIC [2]: 1 µg/mL
- MIC [3]: 1 µg/mL
- MIC [4]: 1 µg/mL
- MIC [5]: 1 µg/mL

Compound: CC(C)[C@@H](C)/C=C/[C@@H](C)[C@H]1CC[C@H]2C3=CC(=O)[C@@]4(O)C[C@@H](O)CC[C@]4(C)[C@@]3(O)CC[C@]12C
- MIC ([1]; DSM 11728, 24 h): > 10 µg/mL
- MIC ([2]; DSM 22644, 24 h): > 10 µg/mL
- MIC ([3]; DSM 799, 24 h): > 10 µg/mL
- MIC ([4]; DSM 1088, 24 h): 5 µg/mL (≈ 11.2 µM)
- MIC ([5]; DSM 682, 24 h): > 10 µg/mL
